In ChEMBL document CHEMBL1140515, “Virtual screening and bioassay study of novel inhibitors for dengue virus mRNA cap (nucleoside-2'O)-methyltransferase” (Bioorg Med Chem, 2007):

System: Dengue virus
Test: Inhibition of Dengue virus NS5MTase assessed as methylation of 7MeGpppAC5 at 100 uM

Structure (SMILES) | inhibition
CN(C)S(=O)(=O)c1ccc(Cl)c(NC(=O)COC(=O)CNC(=O)CC23CC4CC(CC(C4)C2)C3)c1 | 5%
Cc1cc2oc(=O)cc(COC(=O)CN3C(=O)N[C@]4(C[C@H](C)CC(C)(C)C4)C3=O)c2cc1C(C)C | 5%
C[n+]1cn(CCCCCCn2cc([C@@H](O)c3ccccc3)[n+](C)c2)cc1[C@@H](O)c1ccccc1 | 5%
O=C(O)[C@H]1CCCC[C@@H]1C(=O)N[C@H]1CCCC[C@@H]1NC(=O)[C@@H]1CCCC[C@H]1C(=O)O | 5%
COC(=O)[C@@H](Cc1ccccc1)NC(=O)NC12CC3CC(C1)CC(c1ccc(C)cc1)(C3)C2 | 5%
Cc1ccc(C23CC4CC(CC(NC(=O)N[C@@H](Cc5ccccc5)C(=O)O)(C4)C2)C3)cc1 | 75%
CC(C)[C@@H](N)C(=O)NC[C@H]1CC[C@@H](C(=O)N[C@@H](Cc2ccccc2)C(=O)O)CC1 | 5%

More lines, now with the values ahead:

inhibition | Structure (SMILES)
5% | CCOC(=O)Cn1c(=O)n(C[C@H]2CC[C@H](C(=O)NCCc3ccccc3)CC2)c(=O)c2ccccc21
5% | O=C(N[C@@H](Cc1ccccc1)C(=O)O)c1ccc(C(=O)N[C@H](Cc2ccccc2)C(=O)O)cc1
5% | CC[C@@H](C)[C@H](NS(=O)(=O)c1ccc(C)cc1)C(=O)Oc1ccc2c(c1)oc(=O)c1cc(OC)ccc12
5% | CC[C@@H](C)[C@H](NS(=O)(=O)c1ccc(C)cc1)C(=O)Oc1cc2oc(=O)cc(-c3ccccc3)c2cc1Cl
5% | Cc1ccc(S(=O)(=O)N2CCCCC2)cc1NC(=O)COC(=O)CN1C(=O)N[C@@]2(C[C@H](C)CC(C)(C)C2)C1=O
5% | O=C(Oc1cccc(NC2=NS(=O)(=O)c3ccccc32)c1)c1ccc(S(=O)(=O)N2CCCCC2)cc1
5% | N[C@H](C(=O)O)[C@@H](O)c1ccc(OCc2ccccc2)c(OCc2ccccc2)c1
5% | CC[C@@H](C)[C@H](NS(=O)(=O)c1ccc(C)cc1)C(=O)Oc1ccc2c(-c3ccc(OC)cc3)cc(=O)oc2c1

System: not listed separately
Test: Inhibition of Dengue virus NS5MTase assessed as methylation of 7MeGpppAC5

IC50 | Structure (SMILES)
60.5 µM | Cc1ccc(C23CC4CC(CC(NC(=O)N[C@@H](Cc5ccccc5)C(=O)O)(C4)C2)C3)cc1
